Our source for the EC50 values is US20120157401A1, “METHODS FOR TREATING NEUROFIBROMATOSIS” (PTC Therapeutics, Inc., priority 2009, published 2012).

One experiment concerns hypoxia-inducible endogenous VEGF expression. The experiment can be described thus: Hypoxia-inducible endogenous VEGF expression ELISA in HeLa cells, dose-response EC50 (Table 3). The format is cell-based, human. The following applies: Homo sapiens, HeLa, read-out: ELISA EC50 μM. Summed up:
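HeLa cells kept 24-48 h under hypoxia (1% O2, 5% CO2, nitrogen balance) with or without compound, e.g. seven concentrations; secreted VEGF in conditioned medium quantified by ELISA against a standard curve. Parallel Cell Titer Glo viability under identical conditions excludes cytotoxicity.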
As to `O=C(Oc1ccc(Cl)cc1)N1CCc2c([nH]c3ccc(Cl)cc23)C1c1ccc(OCCCN2CC[C@@H](O)C2)cc1` (some centres unmarked) [Compound 1476], the EC50 fell in the range of 0.04 to 0.2 µM.

On to `O=C(Oc1ccc(Cl)cc1)N1CCc2c([nH]c3ccc(Cl)cc23)C1c1ccc(OCCCN2CCC(O)CC2)cc1` (centres unmarked) [Compound 1537], for which the EC50 was less than 0.008 µM.

`CN1CCC(OCCCOc2ccc(C3c4[nH]c5ccc(Cl)cc5c4CCN3C(=O)Oc3ccc(Cl)cc3)cc2)CC1` (centres unmarked) [Compound 1554]: the EC50 is more than 1 µM.

As for `O=C(Oc1ccc(Cl)cc1)N1CCc2c([nH]c3ccc(Cl)cc23)C1c1ccc(OCCCOCCN2CCOCC2)cc1` (centres unmarked) [Compound 1555], the EC50 was less than 0.008 µM.

In the case of `CN(C)CCN(C)CCCOc1ccc([C@H]2c3[nH]c4ccc(Cl)cc4c3CCN2C(=O)Oc2ccc(Cl)cc2)cc1` [Compound 1611], the EC50 was less than 0.008 µM.

Still in this experiment, the particulars now being: Homo sapiens; HeLa cells, hypoxic conditions (1% O2), VEGF ELISA of conditioned media; read-out: ELISA EC50.
For `Cc1cc(N)nn1CCOc1ccc(C2c3[nH]c4ccc(Cl)cc4c3CCN2C(=O)Oc2ccc(Cl)cc2)cc1` (centres unmarked) [Compound 1418], the EC50 was in the range of 0.008 to 0.04 µM.

On to `Cc1cc(NCCOc2ccc(C3c4[nH]c5ccc(Cl)cc5c4CCN3C(=O)Oc3ccc(Cl)cc3)cc2)on1` (centres unmarked) [Compound 1419], for which the EC50 fell in the range of 0.008 to 0.04 µM.

As for `[H]/N=c1\scnn1CCOc1ccc(C2c3[nH]c4ccc(Cl)cc4c3CCN2C(=O)Oc2ccc(Cl)cc2)cc1` (centres unmarked) [Compound 1420], the EC50 is less than 0.008 µM.

Regarding `N#Cc1cn(CCOc2ccc(C3c4[nH]c5ccc(Cl)cc5c4CCN3C(=O)Oc3ccc(Cl)cc3)cc2)nc1N` (centres unmarked) [Compound 1421], the EC50 was less than 0.008 µM.

On to `NC(=O)c1cn(CCOc2ccc(C3c4[nH]c5ccc(Cl)cc5c4CCN3C(=O)Oc3ccc(Cl)cc3)cc2)nc1N` (centres unmarked) [Compound 1422], for which the EC50 fell in the range of 0.008 to 0.04 µM.

For `O=C(Oc1ccc(F)cc1)N1CCc2c([nH]c3ccc(Cl)cc23)C1c1ccc(OCCNc2ncncn2)cc1` (centres unmarked) [Compound 1440], the EC50 was less than 0.008 µM.

For the molecule `N#Cc1cn(CCOc2ccc(C3c4[nH]c5ccc(Cl)cc5c4CCN3C(=O)Oc3ccc(F)cc3)cc2)nc1N` (centres unmarked) [Compound 1441], the EC50 was 0.008 to 0.04 µM.

On to `O=C(Oc1ccc(Cl)cc1)N1CCc2c([nH]c3ccc(Cl)cc23)C1c1ccc(OCCNc2ncncn2)cc1` (centres unmarked) [Compound 1442], for which the EC50 was less than 0.008 µM.

With `N#CCOc1ccc(C2c3[nH]c4ccc(Cl)cc4c3CCN2C(=O)Oc2ccc(Cl)cc2)cc1` (centres unmarked) [Compound 1520], the EC50 is less than 0.008 µM.

As to `CC(=O)Oc1ccc([C@H]2c3[nH]c4ccc(Cl)cc4c3CCN2C(=O)Oc2ccc(Cl)cc2)cc1` [Compound 1538], the EC50 was less than 0.008 µM.

As to `CC(=O)Oc1ccc([C@@H]2c3[nH]c4ccc(Cl)cc4c3CCN2C(=O)Oc2ccc(Cl)cc2)cc1` [Compound 1539], the EC50 was 0.04 to 0.2 µM.

For `N#CCOc1ccc(C2c3[nH]c4ccc(Cl)cc4c3CCN2C(=O)Oc2ccccc2Cl)cc1` (centres unmarked) [Compound 1546], the EC50 fell in the range of 0.04 to 0.2 µM.

Regarding `N#CCOc1ccc(C2c3[nH]c4ccc(Cl)cc4c3CCN2C(=O)Oc2ccc(Br)cc2)cc1` (centres unmarked) [Compound 1547], the EC50 is less than 0.008 µM.

Turning to `N#CCOc1ccc(C2c3[nH]c4ccc(Cl)cc4c3CCN2C(=O)Oc2ccc(F)cc2)cc1` (centres unmarked) [Compound 1548], the EC50 was 0.008 to 0.04 µM.

Consider `COc1ccc(OC(=O)N2CCc3c([nH]c4ccc(Cl)cc34)C2c2ccc(OCC#N)cc2)cc1` (centres unmarked) [Compound 1549], for which the EC50 is 0.008 to 0.04 µM.

As for `CS(=O)(=O)CCCOc1ccc(C2c3[nH]c4ccc(Cl)cc4c3CCN2C(=O)Oc2ccc(Cl)cc2)cc1` (centres unmarked) [Compound 1551], the EC50 was less than 0.008 µM.

In the case of `CCSCCCOc1ccc(C2c3[nH]c4ccc(Cl)cc4c3CCN2C(=O)Oc2ccc(Cl)cc2)cc1` (centres unmarked) [Compound 1552], the EC50 is less than 0.008 µM.

As for `CC(C)SCCCOc1ccc(C2c3[nH]c4ccc(Cl)cc4c3CCN2C(=O)Oc2ccc(Cl)cc2)cc1` (centres unmarked) [Compound 1553], the EC50 is less than 0.008 µM.

Regarding `CC(C)S(=O)(=O)NCC(O)COc1ccc(C2c3[nH]c4ccc(Cl)cc4c3CCN2C(=O)Oc2ccc(F)cc2)cc1` (centres unmarked) [Compound 1557], the EC50 was 0.2 to 1 µM.

For the molecule `CCC(=O)NCC(O)COc1ccc(C2c3[nH]c4ccc(Cl)cc4c3CCN2C(=O)Oc2ccc(Cl)cc2)cc1` (centres unmarked) [Compound 1558], the EC50 was in the range of 0.008 to 0.04 µM.

On to `CC(C)C(=O)NCC(O)COc1ccc(C2c3[nH]c4ccc(Cl)cc4c3CCN2C(=O)Oc2ccc(Cl)cc2)cc1` (centres unmarked) [Compound 1559], for which the EC50 was 0.008 to 0.04 µM.

On to `O=C(NCC(O)COc1ccc(C2c3[nH]c4ccc(Cl)cc4c3CCN2C(=O)Oc2ccc(Cl)cc2)cc1)C1CC1` (centres unmarked) [Compound 1560], for which the EC50 lay within 0.008 to 0.04 µM.

In the case of `O=C(NCC(O)COc1ccc(C2c3[nH]c4ccc(Cl)cc4c3CCN2C(=O)Oc2ccc(Cl)cc2)cc1)c1cccnc1` (centres unmarked) [Compound 1561], the EC50 was in the range of 0.008 to 0.04 µM.

For `CCOC(=O)NCC(O)COc1ccc(C2c3[nH]c4ccc(Cl)cc4c3CCN2C(=O)Oc2ccc(Cl)cc2)cc1` (centres unmarked) [Compound 1562], the EC50 was in the range of 0.008 to 0.04 µM.

Turning to `CCCOC(=O)NCC(O)COc1ccc(C2c3[nH]c4ccc(Cl)cc4c3CCN2C(=O)Oc2ccc(Cl)cc2)cc1` (centres unmarked) [Compound 1563], the EC50 is 0.008 to 0.04 µM.

For `COCCOC(=O)NCC(O)COc1ccc(C2c3[nH]c4ccc(Cl)cc4c3CCN2C(=O)Oc2ccc(Cl)cc2)cc1` (centres unmarked) [Compound 1564], the EC50 is less than 0.008 µM.

`CCS(=O)(=O)NCC(O)COc1ccc(C2c3[nH]c4ccc(Cl)cc4c3CCN2C(=O)Oc2ccc(Cl)cc2)cc1` (centres unmarked) [Compound 1565]: the EC50 was 0.008 to 0.04 µM.

Consider `CC(C)S(=O)(=O)NCC(O)COc1ccc(C2c3[nH]c4ccc(Cl)cc4c3CCN2C(=O)Oc2ccc(Cl)cc2)cc1` (centres unmarked) [Compound 1566], for which the EC50 lay within 0.04 to 0.2 µM.

On to `O=C(Oc1ccc(Cl)cc1)N1CCc2c([nH]c3ccc(Cl)cc23)C1c1ccc(OCC(O)CNS(=O)(=O)C2CC2)cc1` (centres unmarked) [Compound 1567], for which the EC50 fell in the range of 0.04 to 0.2 µM.

For the molecule `[H]/N=c1\sc(C)cn1CCOc1ccc([C@H]2c3[nH]c4ccc(Cl)cc4c3CCN2C(=O)Oc2ccc(Cl)cc2)cc1` [Compound 1568], the EC50 was 0.008 to 0.04 µM.

Regarding `O=C(Oc1ccc(Cl)cc1)N1CCc2c([nH]c3ccc(Cl)cc23)C1c1ccc(OC2COC(c3ccccc3)OC2)cc1` (centres unmarked) [Compound 1569], the EC50 is less than 0.008 µM.

Take `O=C(Oc1ccc(Cl)cc1)N1CCc2c([nH]c3ccc(Cl)cc23)[C@@H]1c1ccc(Oc2ncccn2)cc1` [Compound 1570]: the EC50 was less than 0.008 µM.

Consider `O=C(Oc1ccc(Cl)cc1)N1CCc2c([nH]c3ccc(Cl)cc23)[C@@H]1c1ccc(Oc2cnccn2)cc1` [Compound 1571], for which the EC50 was less than 0.008 µM.

Turning to `O=C(Oc1ccc(Cl)cc1)N1CCc2c([nH]c3ccc(Cl)cc23)[C@@H]1c1ccc(Oc2ccc3ccccc3n2)cc1` [Compound 1572], the EC50 is less than 0.008 µM.

Take `O=C(Oc1ccc(F)cc1)N1CCc2c([nH]c3ccc(Cl)cc23)C1c1ccc(OC2CCOCC2)cc1` (centres unmarked) [Compound 1577]: the EC50 was less than 0.008 µM.

Turning to `O=C(Oc1ccc(Cl)cc1)N1CCc2c([nH]c3ccc(Cl)cc23)C1c1ccc(OC2CCOCC2)cc1` (centres unmarked) [Compound 1578], the EC50 was less than 0.008 µM.

On to `C[Si](C)(C)CCS(=O)(=O)N1CCC(Oc2ccc(C3c4[nH]c5ccc(Cl)cc5c4CCN3C(=O)Oc3ccc(F)cc3)cc2)CC1` (centres unmarked) [Compound 1580], for which the EC50 is less than 0.008 µM.

As to `C[Si](C)(C)CCS(=O)(=O)N1CCC(Oc2ccc(C3c4[nH]c5ccc(Cl)cc5c4CCN3C(=O)Oc3ccc(Cl)cc3)cc2)CC1` (centres unmarked) [Compound 1581], the EC50 was less than 0.008 µM.

Regarding `O=C(Oc1ccc(F)cc1)N1CCc2c([nH]c3ccc(Cl)cc23)[C@@H]1c1ccc(OC2CCOCC2)cc1` [Compound 1604], the EC50 is less than 0.008 µM.

Take `O=C(Oc1ccc(Cl)cc1)N1CCc2c([nH]c3ccc(Cl)cc23)[C@@H]1c1ccc(OC2CCOCC2)cc1` [Compound 1605]: the EC50 was less than 0.008 µM.

With `C[Si](C)(C)CCS(=O)(=O)N1CCC(Oc2ccc([C@H]3c4[nH]c5ccc(Cl)cc5c4CCN3C(=O)Oc3ccc(F)cc3)cc2)CC1` [Compound 1607], the EC50 is less than 0.008 µM.

`C#CCOc1ccc([C@H]2c3[nH]c4ccc(Cl)cc4c3CCN2C(=O)Oc2ccc(Cl)cc2)cc1` [Compound 1612]: the EC50 is less than 0.008 µM.

For `C#CCCCOc1ccc([C@H]2c3[nH]c4ccc(Cl)cc4c3CCN2C(=O)Oc2ccc(Cl)cc2)cc1` [Compound 1613], the EC50 was less than 0.008 µM.

Consider `C#CCCOc1ccc([C@H]2c3[nH]c4ccc(Cl)cc4c3CCN2C(=O)Oc2ccc(Cl)cc2)cc1` [Compound 1614], for which the EC50 was less than 0.008 µM.

For `CCC(=O)NCC(O)CCOc1ccc([C@H]2c3[nH]c4ccc(Cl)cc4c3CCN2C(=O)Oc2ccc(Cl)cc2)cc1` (some centres unmarked) [Compound 1625], the EC50 was less than 0.008 µM.

Take `CC(C)C(=O)NCC(O)CCOc1ccc([C@H]2c3[nH]c4ccc(Cl)cc4c3CCN2C(=O)Oc2ccc(Cl)cc2)cc1` (some centres unmarked) [Compound 1626]: the EC50 was less than 0.008 µM.

Regarding `O=C(NCC(O)CCOc1ccc([C@H]2c3[nH]c4ccc(Cl)cc4c3CCN2C(=O)Oc2ccc(Cl)cc2)cc1)c1ccncc1` (some centres unmarked) [Compound 1627], the EC50 was less than 0.008 µM.

Turning to `O=C(NCC(O)CCOc1ccc([C@H]2c3[nH]c4ccc(Cl)cc4c3CCN2C(=O)Oc2ccc(Cl)cc2)cc1)c1cccnc1` (some centres unmarked) [Compound 1628], the EC50 was less than 0.008 µM.

On to `O=C(NCC(O)CCOc1ccc([C@H]2c3[nH]c4ccc(Cl)cc4c3CCN2C(=O)Oc2ccc(Cl)cc2)cc1)c1ccccn1` (some centres unmarked) [Compound 1629], for which the EC50 is less than 0.008 µM.

Regarding `COC(=O)NCC(O)CCOc1ccc([C@H]2c3[nH]c4ccc(Cl)cc4c3CCN2C(=O)Oc2ccc(Cl)cc2)cc1` (some centres unmarked) [Compound 1635], the EC50 was less than 0.008 µM.

Take `CCOC(=O)NCC(O)CCOc1ccc([C@H]2c3[nH]c4ccc(Cl)cc4c3CCN2C(=O)Oc2ccc(Cl)cc2)cc1` (some centres unmarked) [Compound 1636]: the EC50 is less than 0.008 µM.

Take `COCCOC(=O)NCC(O)CCOc1ccc([C@H]2c3[nH]c4ccc(Cl)cc4c3CCN2C(=O)Oc2ccc(Cl)cc2)cc1` (some centres unmarked) [Compound 1637]: the EC50 was less than 0.008 µM.

For `CCS(=O)(=O)NCC(O)CCOc1ccc([C@H]2c3[nH]c4ccc(Cl)cc4c3CCN2C(=O)Oc2ccc(Cl)cc2)cc1` (some centres unmarked) [Compound 1638], the EC50 was less than 0.008 µM.

With `O=C(Oc1ccc(Cl)cc1)N1CCc2c([nH]c3ccc(Cl)cc23)[C@@H]1c1ccc(OCCC(O)CNS(=O)(=O)C2CC2)cc1` (some centres unmarked) [Compound 1639], the EC50 was less than 0.008 µM.

One may read the EC50 as the midpoint of the concentration-response curve.
